Here are results for two molecules from ChEMBL document CHEMBL1136440, “Design and synthesis of novel RXR-selective modulators with improved pharmacological profile” (Bioorg Med Chem Lett, 2003).

Data set [1] is described as follows: Cmax value in IRC mice. The class given is ADME, organism-based. To be noted: mouse, in vivo.
A short description of data set [2]: Tmax value in IRC mice. To be noted: mouse, in vivo. The class given is ADME, organism-based.
Data set [3] addresses T1, Retinoic acid receptor beta (Homo sapiens, UniProt P10826).
T1 sequence (P10826 whole entry): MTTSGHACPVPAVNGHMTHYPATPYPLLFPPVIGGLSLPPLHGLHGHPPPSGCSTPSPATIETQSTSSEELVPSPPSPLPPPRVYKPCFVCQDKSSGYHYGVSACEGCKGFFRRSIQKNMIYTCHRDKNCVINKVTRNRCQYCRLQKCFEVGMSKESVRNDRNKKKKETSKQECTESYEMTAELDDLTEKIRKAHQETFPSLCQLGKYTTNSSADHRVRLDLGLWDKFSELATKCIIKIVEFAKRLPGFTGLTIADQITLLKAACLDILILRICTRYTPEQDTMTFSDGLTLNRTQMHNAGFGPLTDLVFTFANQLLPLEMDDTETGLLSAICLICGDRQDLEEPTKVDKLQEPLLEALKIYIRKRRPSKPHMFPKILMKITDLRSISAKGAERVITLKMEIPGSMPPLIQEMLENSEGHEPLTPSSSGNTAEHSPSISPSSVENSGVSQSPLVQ
The data set is described as follows: Binding affinity against RAR beta receptor using [3H]ATRA as radioligand in CV-1 cells. The class given is cell-based, Cercopithecidae.

Data set [4] has as its target T2, Peroxisome proliferator-activated receptor gamma (Homo sapiens, UniProt P37231).
T2 sequence (P37231 whole entry): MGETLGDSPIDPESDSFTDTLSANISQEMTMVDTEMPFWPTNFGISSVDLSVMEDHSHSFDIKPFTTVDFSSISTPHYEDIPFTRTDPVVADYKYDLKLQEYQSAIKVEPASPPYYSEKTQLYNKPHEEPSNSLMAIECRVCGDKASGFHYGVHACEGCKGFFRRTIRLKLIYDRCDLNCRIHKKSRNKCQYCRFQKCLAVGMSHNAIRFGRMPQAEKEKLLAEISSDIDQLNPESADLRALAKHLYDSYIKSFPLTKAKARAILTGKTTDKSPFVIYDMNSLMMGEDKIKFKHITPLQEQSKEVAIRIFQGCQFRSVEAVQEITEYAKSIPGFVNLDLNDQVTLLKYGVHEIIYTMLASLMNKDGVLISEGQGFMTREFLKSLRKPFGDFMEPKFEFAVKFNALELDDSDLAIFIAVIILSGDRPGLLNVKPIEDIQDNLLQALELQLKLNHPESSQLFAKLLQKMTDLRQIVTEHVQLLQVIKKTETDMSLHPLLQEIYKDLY
Description: In vitro agonist efficacy against PPAR gamma along with 100 nM BRL-49653

Data set [5] deals with T3, Retinoic acid receptor gamma (Homo sapiens, UniProt P13631).
T3 sequence (P13631 whole entry): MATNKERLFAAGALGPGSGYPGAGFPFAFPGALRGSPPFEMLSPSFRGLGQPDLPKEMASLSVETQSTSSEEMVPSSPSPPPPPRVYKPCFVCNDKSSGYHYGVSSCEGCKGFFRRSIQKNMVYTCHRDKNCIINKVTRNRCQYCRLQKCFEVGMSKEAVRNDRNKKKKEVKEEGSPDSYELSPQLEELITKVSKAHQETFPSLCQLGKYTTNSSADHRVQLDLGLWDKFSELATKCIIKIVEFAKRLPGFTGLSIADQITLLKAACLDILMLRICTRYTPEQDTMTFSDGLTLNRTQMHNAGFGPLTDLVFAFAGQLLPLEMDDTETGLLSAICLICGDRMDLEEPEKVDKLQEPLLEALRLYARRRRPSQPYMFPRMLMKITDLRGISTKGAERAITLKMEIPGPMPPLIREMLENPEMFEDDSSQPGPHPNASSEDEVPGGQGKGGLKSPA
Description: Binding affinity against RAR gamma receptor using [3H]ATRA as radioligand in CV-1 cells. The class given is cell-based, Cercopithecidae.

The target of data set [6] is T4, Retinoic acid receptor alpha (Homo sapiens) (UniProt P10276).
T4 sequence (whole entry): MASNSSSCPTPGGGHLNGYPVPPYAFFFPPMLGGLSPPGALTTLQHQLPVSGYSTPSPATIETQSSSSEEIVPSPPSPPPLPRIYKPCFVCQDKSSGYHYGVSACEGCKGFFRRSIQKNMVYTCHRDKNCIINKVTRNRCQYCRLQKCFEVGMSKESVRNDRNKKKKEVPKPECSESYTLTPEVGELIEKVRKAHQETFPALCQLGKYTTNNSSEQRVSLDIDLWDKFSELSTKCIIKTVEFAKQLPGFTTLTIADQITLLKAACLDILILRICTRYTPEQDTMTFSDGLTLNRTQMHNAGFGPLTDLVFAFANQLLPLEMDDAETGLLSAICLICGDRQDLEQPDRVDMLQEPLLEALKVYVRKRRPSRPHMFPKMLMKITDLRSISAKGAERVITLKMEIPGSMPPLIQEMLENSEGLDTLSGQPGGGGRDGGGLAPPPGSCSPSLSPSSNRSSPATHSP
Description: Agonist synergy against RAR alpha was tested along with 3 nM TTNPB. The data set is classed as functional. To be noted: Cercopithecidae.

Data set [7] concerns the target T2, Peroxisome proliferator-activated receptor gamma. This is another data set of the same source.
Description: In vitro agonistic activity against PPAR gamma along with 100 nM BRL-49653
Data set [8] in a line: Area under curve at 0-8 hr in IRC mice after peroral administration. The data set is classed as ADME, organism-based. Further details: time < 8 hr, route oral. To be noted: mouse, in vivo, po.
The target of data set [9] is T5, Retinoic acid receptor RXR-beta (Homo sapiens, UniProt P28702).
T5 sequence (P28702 whole entry): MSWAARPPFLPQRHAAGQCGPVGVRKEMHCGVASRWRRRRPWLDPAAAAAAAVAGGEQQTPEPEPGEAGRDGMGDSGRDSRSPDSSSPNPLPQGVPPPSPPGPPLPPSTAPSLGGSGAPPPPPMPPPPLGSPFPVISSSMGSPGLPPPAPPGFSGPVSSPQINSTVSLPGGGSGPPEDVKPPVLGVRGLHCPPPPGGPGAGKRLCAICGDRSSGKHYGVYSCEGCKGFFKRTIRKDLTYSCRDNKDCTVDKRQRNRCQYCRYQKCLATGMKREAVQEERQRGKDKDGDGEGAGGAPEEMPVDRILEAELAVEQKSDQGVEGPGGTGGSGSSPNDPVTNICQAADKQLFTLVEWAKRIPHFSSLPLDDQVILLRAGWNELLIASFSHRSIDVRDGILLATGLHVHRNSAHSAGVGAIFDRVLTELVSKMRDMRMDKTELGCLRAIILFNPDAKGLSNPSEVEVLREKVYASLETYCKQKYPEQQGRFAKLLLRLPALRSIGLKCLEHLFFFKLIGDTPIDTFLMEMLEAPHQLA
The data set is described as follows: Displacement of [3H]9-cis-RA from RXR beta receptor in CV-1 cells. The class given is cell-based, Cercopithecidae.

Data set [10] has as its target T6, Retinoic acid receptor alpha (Homo sapiens, UniProt P10276).
T6 sequence (P10276 whole entry): T4 sequence (whole entry)
Description: Binding affinity against RAR alpha receptor using [3H]ATRA as radioligand in CV-1 cells. The data set is classed as cell-based, Cercopithecidae.

Several values for one entry are separate records, joined by “and”; a condition that tells them apart may be missing. Equal entries are not always repeated. Bounds are passed on as bounds.

As to `C/C(=C/C=C/C(C)=C/C(=O)O)c1cc(-c2ccccc2F)cc(C(C)C)c1OCC(F)F`, the Cmax in data set [1] is 4140 ng/mL and 9.31 µM. The Tmax in [2] worked out at 1 h. Also, the Ki in data set [3] was found to be 3.93 µM; in data set [5] it was 8.76 µM; in [9], 0.016 µM; in [10], 6.76 µM. Besides, the figures for the 50% effective concentration (EC50) in data set [4] and in data set [7] were 0.046 µM and 0.0004 µM, respectively. Also, the Synergy in data set [6] stood at 1.5 nM. This molecule also showed an AUC(0-t) at 8 h in [8] of 15200 ng·h/mL.
For the molecule `CCOc1c(\C(C)=C/C=C/C(C)=C/C(=O)O)cc(C(F)(F)C(F)(F)F)cc1C(C)C`, the Cmax in [1] is 4430 ng/mL and 10.2 µM. In [2], the Tmax was determined as 1 h. Moreover, the inhibitory constant (Ki) is over 10 µM in [3], over 10 µM in data set [5], 0.0085 µM in data set [9] and over 10 µM in data set [10]. Further, the EC50 was 0.099 µM in data set [4] and 0.0007 µM in data set [7]. The Synergy in data set [6] was 2.8 nM. The molecule further gave an area under the curve AUC(0-t) at 8 h in data set [8] of 14400 ng·h/mL.
